Reference: ChEMBL document CHEMBL4049402, “Synthesis and cytotoxic activity of novel tetrahydrobenzodifuran-imidazolium salt derivatives” (Bioorg Med Chem Lett, 2017)

Key:
SMMC-7721 [1] = assay: Cell cycle arrest in human SMMC7721 cells assessed as accumulation at G2/M phase at 2 uM after 24 hrs by propidium iodide staining based flow cytometry (reference value: 3.12 +/- 0.02%); type: functional
SMMC-7721 [2] = assay: Cytotoxicity against human SMMC7721 cells after 48 hrs by MTT assay; type: functional, cell-based; conditions: Homo sapiens, SMMC-7721, 48 h
SMMC-7721 [3] = assay: Induction of apoptosis in human SMMC7721 cells assessed as late apoptotic cells at 12 uM after 48 hrs by Annexin-V-FITC/propidium iodide staining based flow cytometry (reference value: 2.42%); type: functional
SMMC-7721 [4] = assay: Cell cycle arrest in human SMMC7721 cells assessed as accumulation at S phase at 4 uM after 24 hrs by propidium iodide staining based flow cytometry (reference value: 20.18 +/- 0.02%); type: functional
MCF7 [5] = assay: Cytotoxicity against human MCF7 cells after 48 hrs by MTT assay; type: functional, cell-based; conditions: Homo sapiens, MCF7, 48 h
SMMC-7721 [6] = assay: Induction of apoptosis in human SMMC7721 cells assessed as late apoptotic cells at 8 uM after 48 hrs by Annexin-V-FITC/propidium iodide staining based flow cytometry (reference value: 2.42%); type: functional
SMMC-7721 [7] = assay: Induction of apoptosis in human SMMC7721 cells assessed as live cells at 16 uM after 48 hrs by Annexin-V-FITC/propidium iodide staining based flow cytometry (reference value: 92.6%); type: functional
SMMC-7721 [8] = assay: Cell cycle arrest in human SMMC7721 cells assessed as accumulation at S phase at 2 uM after 24 hrs by propidium iodide staining based flow cytometry (reference value: 20.18 +/- 0.02%); type: functional
SMMC-7721 [9] = assay: Induction of apoptosis in human SMMC7721 cells assessed as necrotic cells at 8 uM after 48 hrs by Annexin-V-FITC/propidium iodide staining based flow cytometry (reference value: 3.18%); type: functional
SMMC-7721 [10] = assay: Cell cycle arrest in human SMMC7721 cells assessed as accumulation at G0/G1 phase at 2 uM after 24 hrs by propidium iodide staining based flow cytometry (reference value: 70.12 +/- 0.18%); type: functional
SMMC-7721 [11] = assay: Induction of apoptosis in human SMMC7721 cells assessed as live cells at 12 uM after 48 hrs by Annexin-V-FITC/propidium iodide staining based flow cytometry (reference value: 92.6%); type: functional
SMMC-7721 [12] = assay: Cell cycle arrest in human SMMC7721 cells assessed as accumulation at G2/M phase at 4 uM after 24 hrs by propidium iodide staining based flow cytometry (reference value: 3.12 +/- 0.02%); type: functional
SMMC-7721 [13] = assay: Induction of apoptosis in human SMMC7721 cells assessed as early apoptotic cells at 12 uM after 48 hrs by Annexin-V-FITC/propidium iodide staining based flow cytometry (reference value: 1.82%); type: functional
SMMC-7721 [14] = assay: Potency index, ratio of cisplatin IC50 to compound IC50 for human SMMC7721 cells; type: functional
SW480 = assay: Cytotoxicity against human SW480 cells after 48 hrs by MTT assay; type: functional, cell-based; conditions: Homo sapiens, SW480, 48 h
SMMC-7721 [15] = assay: Induction of apoptosis in human SMMC7721 cells assessed as early apoptotic cells at 16 uM after 48 hrs by Annexin-V-FITC/propidium iodide staining based flow cytometry (reference value: 1.82%); type: functional
SMMC-7721 [16] = assay: Cell cycle arrest in human SMMC7721 cells assessed as increase in G1 population after 24 hrs by propidium iodide staining based flow cytometry; type: functional
SMMC-7721 [17] = assay: Induction of apoptosis in human SMMC7721 cells assessed as live cells at 4 uM after 48 hrs by Annexin-V-FITC/propidium iodide staining based flow cytometry (reference value: 92.6%); type: functional
SMMC-7721 [18] = assay: Induction of apoptosis in human SMMC7721 cells assessed as early apoptotic cells at 8 uM after 48 hrs by Annexin-V-FITC/propidium iodide staining based flow cytometry (reference value: 1.82%); type: functional
SMMC-7721 [19] = assay: Induction of apoptosis in human SMMC7721 cells assessed as late apoptotic cells at 16 uM after 48 hrs by Annexin-V-FITC/propidium iodide staining based flow cytometry (reference value: 2.42%); type: functional
SMMC-7721 [20] = assay: Induction of apoptosis in human SMMC7721 cells assessed as late apoptotic cells at 4 uM after 48 hrs by Annexin-V-FITC/propidium iodide staining based flow cytometry (reference value: 2.42%); type: functional
SMMC-7721 [21] = assay: Induction of apoptosis in human SMMC7721 cells assessed as necrotic cells at 16 uM after 48 hrs by Annexin-V-FITC/propidium iodide staining based flow cytometry (reference value: 3.18%); type: functional
A549 = assay: Cytotoxicity against human A549 cells after 48 hrs by MTT assay; type: functional, cell-based; conditions: Homo sapiens, A549, 48 h
SMMC-7721 [22] = assay: Induction of apoptosis in human SMMC7721 cells assessed as necrotic cells at 12 uM after 48 hrs by Annexin-V-FITC/propidium iodide staining based flow cytometry (reference value: 3.18%); type: functional
SMMC-7721 [23] = assay: Cell cycle arrest in human SMMC7721 cells assessed as accumulation at G0/G1 phase at 4 uM after 24 hrs by propidium iodide staining based flow cytometry (reference value: 70.12 +/- 0.18%); type: functional
SMMC-7721 [24] = assay: Induction of apoptosis in human SMMC7721 cells assessed as live cells at 8 uM after 48 hrs by Annexin-V-FITC/propidium iodide staining based flow cytometry (reference value: 92.6%); type: functional
SMMC-7721 [25] = assay: Induction of apoptosis in human SMMC7721 cells assessed as necrotic cells at 4 uM after 48 hrs by Annexin-V-FITC/propidium iodide staining based flow cytometry (reference value: 3.18%); type: functional
MCF7 [26] = assay: Potency index, ratio of cisplatin IC50 to compound IC50 for human MCF7 cells; type: functional
SMMC-7721 [27] = assay: Induction of apoptosis in human SMMC7721 cells assessed as early apoptotic cells at 4 uM after 48 hrs by Annexin-V-FITC/propidium iodide staining based flow cytometry (reference value: 1.82%); type: functional
HL-60 = assay: Cytotoxicity against human HL60 cells after 48 hrs by MTT assay; type: functional, cell-based; conditions: Homo sapiens, HL-60, 48 h

## Cc1n(Cc2c3c(cc4c2OCC4)OCC3)c2ccccc2[n+]1CC(=O)c1ccc2ccccc2c1.[Br-]
SMMC-7721 [1]
  Activity: 4.37%
SMMC-7721 [2]
  IC50: 4.52 µM
SMMC-7721 [3]
  Activity: 37.3%
SMMC-7721 [4]
  Activity: 8.75%
MCF7 [5]
  IC50: 1.65 µM
SMMC-7721 [6]
  Activity: 4.64%
SMMC-7721 [7]
  Activity: 0.69%
SMMC-7721 [8]
  Activity: 14.85%
SMMC-7721 [9]
  Activity: 7.42%
SMMC-7721 [10]
  Activity: 70.58%
SMMC-7721 [11]
  Activity: 30.7%
SMMC-7721 [12]
  Activity: 0.94%
SMMC-7721 [13]
  Activity: 0.98%
SMMC-7721 [14]
  Ratio IC50: 2.7
SW480
  IC50: 4.49 µM
SMMC-7721 [15]
  Activity: 0.43%
SMMC-7721 [16]
  Activity: Dose-dependent effect
SMMC-7721 [17]
  Activity: 91.9%
SMMC-7721 [18]
  Activity: 0.86%
SMMC-7721 [19]
  Activity: 92.4%
SMMC-7721 [20]
  Activity: 3.18%
SMMC-7721 [21]
  Activity: 6.48%
A549
  IC50: 6.1 µM
SMMC-7721 [22]
  Activity: 31%
SMMC-7721 [23]
  Activity: 79.57%
SMMC-7721 [24]
  Activity: 87.1%
SMMC-7721 [25]
  Activity: 3.44%
MCF7 [26]
  Ratio IC50: 8.4
SMMC-7721 [27]
  Activity: 1.43%
HL-60
  IC50: 0.8 µM
